Experimental data from US11332463B2, “Spiropiperidine allosteric modulators of nicotinic acetylcholine receptors” (Merck Sharp & Dohme Corp., priority 2018, dated 2022).
pEC50: −log10 of the molar value. Read-outs that look alike come from different tables or passages of the source.

Molecular target: T1, human α7 nicotinic acetylcholine receptor (HEK cell line stably expressing human RIC-3 and human α7) (Homo sapiens, UniProt P36544)
T1 construct: host or cells: HEK cell line (PrecisION hnAChR α7/RIC-3)
Test: Automated patch-clamp electrophysiology functional assay (Assay A), IonFlux HT, whole-cell population patch
Format: cell-based
Method: The α7 nAChR positive allosteric modulator (PAM) activity of the present compounds may be tested using assays known in the art. […] The assay was performed using the IonFlux HT in a whole-cell, population patch configuration. See Golden et al. Assay Drug Dev. Technol. […] The compounds were assessed for their ability to modulate the function of the human 7 nAChR stably expressed in a HEK cell line both in the presence, and in the absence of the natural 7 agonist acetylcholine. By performing a series of such measurements at different concentrations, the effective concentration of the 7 nAChR PAMs (EC50) was determined. See Spencer et al. Assay Drug Dev. Technol.
Direct activation of α7 (agonism), and potentiation of acetylcholine-evoked 7 currents was determined as follows:
Automated patch-clamp electrophysiology was performed using the IonFlux HT (Fluxion Biosciences Inc., San Francisco, Calif.) in the whole-cell, population patch configuration. Test compounds were assessed for their ability to modulate the function of the α7 nicotinic acetylcholine receptor both in the presence, and in the absence of the natural α7 agonist acetylcholine. […] Immediately prior to assay, cells were detached by first aspirating growth media, rinsing with Dulbecco's phosphate buffered saline, and then adding 10 mL of Accutase (Innovative Cell Technologies, San Diego, Calif.) to the flask and then incubating at 37° C. for 5 minutes. Detached cells were then recovered by the addition of 40 mL of CHO-serum-free media supplemented with 25 mM HEPES, and rocked gently in a 50 mL conical tube for 20 minutes prior to patch-clamp assay. After recovery, cells were pelleted by centrifugation at 1,000 RPM for 1 minute in a compact bench top centrifuge; recovery media was aspirated and cells were resuspended in external recording solution (150 mM NaCl, 5 mM KCl, 2 mM CaCl2), 1 mM MgCl2, 10 mM HEPES, 12 mM dextrose) to a density of 5.0×10^6 cells/mL. The cell suspension was added to the cell inlet wells on an IonFlux HT population patch plate which had previously been rinsed and primed with deionized H2O. Test compounds were serially diluted in DMSO and then resuspended to the final test concentration in external recording solution, with, or without 40 μM acetylcholine added to the external recording solution; test compounds were then transferred to the IonFlux HT population patch plate. Internal recording solution (110 mM TrisPO4, 28 mM TrisBase, 0.1 mM CaCl2, 2 mM MgCl2, 11 mM EGTA, 4 mM MgATP) was added to the internal recording solution inlet wells on the IonFlux HT patch plate previously loaded with cells and test compounds, and the plate loaded into the IonFlux HT instrument. A protocol was executed on the IonFlux HT to trap the cells, break into the cells, and establish the whole-cell recording configuration; cells were voltage-clamped at a holding potential of −60 mV for the duration of the experiment, all experiments were conducted at room temperature, and the IonFlux HT injection pressure was 8 psi for solution applications. Upon establishing the whole-cell configuration, external recording solution was perfused into the recording chambers for 120 seconds and then 40 μM acetylcholine was applied for 1 second and immediately washed off with external recording solution for 60 seconds. The 40 μM acetylcholine-evoked α7 current served as the current response to which subsequent test compound effects, in the presence, or in the absence of 40 μM acetylcholine would be quantified relative to. Next, test compounds were evaluated at multiple concentrations for their ability to induce, or modulate 7 current responses; three concentrations of test compound were evaluated in ascending dose fashion per recording.

[1] = HEK cells expressing human α7/RIC-3, test compound with or without 40 μM acetylcholine, holding potential −60 mV, room temperature, read-out: α7 nAChR Potency
[2] = automated patch-clamp electrophysiology functional assay (Assay A), read-out: α7 nAChR EC50

T1 sequence (P36544 23-502): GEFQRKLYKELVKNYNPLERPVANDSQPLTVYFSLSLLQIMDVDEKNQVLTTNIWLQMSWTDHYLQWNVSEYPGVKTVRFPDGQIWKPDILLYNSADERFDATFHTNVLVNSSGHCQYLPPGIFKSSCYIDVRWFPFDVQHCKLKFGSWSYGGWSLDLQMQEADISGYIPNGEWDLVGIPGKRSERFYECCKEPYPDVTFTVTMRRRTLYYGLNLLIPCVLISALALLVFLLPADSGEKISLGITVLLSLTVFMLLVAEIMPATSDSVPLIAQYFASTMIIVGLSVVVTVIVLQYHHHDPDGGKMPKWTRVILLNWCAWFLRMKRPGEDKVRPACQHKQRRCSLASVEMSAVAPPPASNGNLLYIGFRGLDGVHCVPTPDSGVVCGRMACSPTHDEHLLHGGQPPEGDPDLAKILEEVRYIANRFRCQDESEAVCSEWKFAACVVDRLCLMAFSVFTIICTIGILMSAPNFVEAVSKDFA

Cn1nc2c(c1-c1nc([C@@H]3C(F)(F)C34CCN(S(N)(=O)=O)CC4)no1)CCC2 [Example 20, (2R)-1,1-Difluoro-2-[5-(2-methyl-2,4,5,6-tetrahydrocyclopenta[c]pyrazol-3-yl)-1,2,4-oxadiazol-3-yl]-6-azaspiro[2.5]octane-6-sulfonamide]
pEC50 [1]: > 7.00
pEC50 [2]: 7.01

CS(=O)(=O)N1CCC2(CC1)C(c1nc(-c3ccc(F)cc3C(F)(F)F)no1)C2(F)F (centres unmarked) [Example 21, 1,1-Difluoro-2-{3-[4-fluoro-2-(trifluoromethyl)phenyl]-1,2,4-oxadiazol-5-yl}-6-(methylsulfonyl)-6-azaspiro[2.5]octane]
pEC50 [1]: 5.30 to 6.30
pEC50 [2]: 6.17

Cc1nn(C)c(-c2nc([C@@H]3C(F)(F)C34CCN(S(N)(=O)=O)CC4)no2)c1C [Example 22, (2R)-1,1-Difluoro-2-[5-(1,3,4-trimethyl-1H-pyrazol-5-yl)-1,2,4-oxadiazol-3-yl]-6-azaspiro[2.5]octane-6-sulfonamide]
pEC50 [1]: > 7.00
pEC50 [2]: 7.00

NS(=O)(=O)N1CCC2(CC1)C[C@H]2c1nc(-c2conc2C2CC2)co1 [Example 23, (1R)-1-[4-(3-Cyclopropylisoxazol-4-yl)-1,3-oxazol-2-yl]-6-azaspiro[2.5]octane-6-sulfonamide]
pEC50 [1]: 5.30 to 6.30
pEC50 [2]: 5.85

NS(=O)(=O)N1CCC2(CC1)[C@H](c1coc(-c3ccc(F)cc3C(F)(F)F)n1)C2(F)F [Example 24, (2R)-1,1-Difluoro-2-{2-[4-fluoro-2-(trifluoromethyl)phenyl]-1,3-oxazol-4-yl}-6-azaspiro[2.5]octane-6-sulfonamide]
pEC50 [1]: > 7.00
pEC50 [2]: 7.05

Cc1cn(C2CC2)nc1-c1nc([C@@H]2C(F)(F)C23CCN(S(N)(=O)=O)CC3)no1 [Example 25, (2R)-2-[5-(1-Cyclopropyl-4-methyl-1H-pyrazol-3-yl)-1,2,4-oxadiazol-3-yl]-1,1-difluoro-6-azaspiro[2.5]octane-6-sulfonamide]
pEC50 [1]: 6.30 to 7.00
pEC50 [2]: 6.68

CCn1nc(-c2nc([C@@H]3CC34CCN(S(N)(=O)=O)CC4)no2)cc1C [Example 27, (1R)-1-[5-(1-Ethyl-5-methyl-TH-pyrazol-3-yl)-1,2,4-oxadiazol-3-yl]-6-azaspiro[2.5]octane-6-sulfonamide]
pEC50 [1]: 5.30 to 6.30
pEC50 [2]: 5.40

Cc1onc(C2CC2)c1-c1cnc([C@@H]2CC23CCN(S(N)(=O)=O)CC3)o1 [Example 28, (1R)-1-[5-(3-Cyclopropyl-5-methylisoxazol-4-yl)-1,3-oxazol-2-yl]-6-azaspiro[2.5]octane-6-sulfonamide]
pEC50 [1]: 6.30 to 7.00
pEC50 [2]: 6.92

NS(=O)(=O)N1CCC2(CC1)[C@H](c1noc(-c3cc(C(F)(F)F)nn3C3CC3)n1)C2(F)F [Example 29, (2R)-2-{5-[1-Cyclopropyl-3-(trifluoromethyl)-1H-pyrazol-5-yl]-1,2,4-oxadiazol-3-yl}-1,1-difluoro-6-azaspiro[2.5]octane-6-sulfonamide]
pEC50 [1]: 6.30 to 7.00
pEC50 [2]: 6.77

Cc1ccc(C2CC2)c(-c2nc([C@@H]3C(F)(F)C34CCN(S(N)(=O)=O)CC4)no2)c1 [Example 30, (2R)-2-[5-(2-Cyclopropyl-5-methylphenyl)-1,2,4-oxadiazol-3-yl]-1,1-difluoro-6-azaspiro[2.5]octane-6-sulfonamide]
pEC50 [1]: > 7.00
pEC50 [2]: 8.62

NS(=O)(=O)N1CCC2(CC1)[C@H](c1coc(-c3conc3C3CC3)n1)C2(F)F [Example 31, (2R)-2-[2-(3-Cyclopropylisoxazol-4-yl)-1,3-oxazol-4-yl]-1,1-difluoro-6-azaspiro[2.5]octane-6-sulfonamide]
pEC50 [1]: 6.30 to 7.00
pEC50 [2]: 6.89

Cc1ccccc1-c1nc([C@@H]2CC23CCN(S(N)(=O)=O)CC3)no1 [Example 33, (1R)-1-[5-(2-Methylphenyl)-1,2,4-oxadiazol-3-yl]-6-azaspiro[2.5]octane-6-sulfonamide]
pEC50 [1]: 6.30 to 7.00
pEC50 [2]: 6.41

Cc1ccc(C)c(-c2nc([C@@H]3C(F)(F)C34CCN(S(N)(=O)=O)CC4)no2)c1 [Example 34, (2R)-2-[5-(2,5-Dimethylphenyl)-1,2,4-oxadiazol-3-yl]-1,1-difluoro-6-azaspiro[2.5]octane-6-sulfonamide]
pEC50 [1]: > 7.00
pEC50 [2]: 8.35

NS(=O)(=O)N1CCC2(CC1)[C@H](c1coc(-c3ccnc(OC(F)F)c3)n1)C2(F)F [Example 35, (2R)-2-{2-[2-(Difluoromethoxy)pyridin-4-yl]-1,3-oxazol-4-yl}-1,1-difluoro-6-azaspiro[2.5]octane-6-sulfonamide]
pEC50 [1]: 6.30 to 7.00
pEC50 [2]: 6.82

COc1ccc(Cl)cc1-c1noc([C@@H]2CC23CCN(S(N)(=O)=O)CC3)n1 [Example A1]
pEC50 [1]: 6.30 to 7.00
pEC50 [2]: 6.31

NS(=O)(=O)N1CCC2(CC1)C(c1nc(-c3ccccc3)no1)C2(F)F (centres unmarked) [Example A2]
pEC50 [1]: 6.30 to 7.00
pEC50 [2]: 6.49

NS(=O)(=O)N1CCC2(CC1)C[C@H]2c1nc(-c2cc(F)ccc2C(F)(F)F)no1 [Example A4]
pEC50 [1]: 5.30 to 6.30
pEC50 [2]: 6.07

NS(=O)(=O)N1CCC2(CC1)CC2c1nc(-c2conc2C2CC2)no1 (centres unmarked) [Example C4]
pEC50 [1]: 5.30 to 6.30
pEC50 [2]: 5.96

Cc1onc(C2CC2)c1-c1noc(C2C(F)(F)C23CCN(S(N)(=O)=O)CC3)n1 (centres unmarked) [Example C5]
pEC50 [1]: > 7.00
pEC50 [2]: 7.96

NS(=O)(=O)N1CCC2(CC1)C(c1nc(C3CCCCC3)no1)C2(F)F (centres unmarked) [Example C6]
pEC50 [1]: 6.30 to 7.00
pEC50 [2]: 6.38

Cc1ncccc1-c1noc(C2C(F)(F)C23CCN(S(N)(=O)=O)CC3)n1 (centres unmarked) [Example C7]
pEC50 [1]: 5.30 to 6.30
pEC50 [2]: 5.96

NS(=O)(=O)N1CCC2(CC1)C(c1nc(-c3ccnc(C(F)(F)F)c3)no1)C2(F)F (centres unmarked) [Example C8]
pEC50 [1]: 5.30 to 6.30
pEC50 [2]: 5.89

NS(=O)(=O)N1CCC2(CC1)C(c1nc(-c3ccnc(OC(F)F)c3)no1)C2(F)F (centres unmarked) [Example C9]
pEC50 [1]: 6.30 to 7.00
pEC50 [2]: 6.51

Cc1cnn(C2CC2)c1-c1noc(C2C(F)(F)C23CCN(S(N)(=O)=O)CC3)n1 (centres unmarked) [Example C10]
pEC50 [1]: > 7.00
pEC50 [2]: 7.09

NS(=O)(=O)N1CCC2(CC1)C(c1nc(-c3ccn4ccnc4c3)no1)C2(F)F (centres unmarked) [Example C11]
pEC50 [1]: 5.30 to 6.30
pEC50 [2]: 5.60

NS(=O)(=O)N1CCC2(CC1)CC2c1nc(-c2c(C(F)(F)F)noc2C2CC2)no1 (centres unmarked) [Example C12]
pEC50 [1]: 6.30 to 7.00
pEC50 [2]: 6.77

NS(=O)(=O)N1CCC2(CC1)C(c1nc(-c3ccnn3C3CC3)no1)C2(F)F (centres unmarked) [Example C14]
pEC50 [1]: 6.30 to 7.00
pEC50 [2]: 6.82

NS(=O)(=O)N1CCC2(CC1)C(c1nc(-c3c(C4CC4)noc3C(F)(F)F)no1)C2(F)F (centres unmarked) [Example C15]
pEC50 [1]: > 7.00

NS(=O)(=O)N1CCC2(CC1)C(c1nc(-c3c(C(F)(F)F)noc3C3CC3)no1)C2(F)F (centres unmarked) [Example C16]
pEC50 [1]: > 7.00
pEC50 [2]: 7.43

NS(=O)(=O)N1CCC2(CC1)C[C@H]2c1noc(-c2cccc(C(F)(F)F)c2)n1 [Example D1]
pEC50 [1]: 5.30 to 6.30
pEC50 [2]: 6.28

N#Cc1ccccc1-c1nc([C@@H]2CC23CCN(S(N)(=O)=O)CC3)no1 [Example D3]
pEC50 [1]: 4.30 to 5.30
pEC50 [2]: 5.28

NS(=O)(=O)N1CCC2(CC1)C[C@H]2c1noc(-c2ccccc2OC(F)F)n1 [Example D4]
pEC50 [1]: 6.30 to 7.00
pEC50 [2]: 6.72

NS(=O)(=O)N1CCC2(CC1)C[C@H]2c1noc(-c2cc(Br)ccc2C(F)(F)F)n1 [Example D6]
pEC50 [1]: 6.30 to 7.00

NS(=O)(=O)N1CCC2(CC1)C[C@H]2c1noc(-c2ccc(Cl)cc2C(F)(F)F)n1 [Example D7]
pEC50 [1]: 5.30 to 6.30
pEC50 [2]: 6.23

NS(=O)(=O)N1CCC2(CC1)C[C@H]2c1noc(-c2ccccc2)n1 [Example D8]
pEC50 [1]: 5.30 to 6.30
pEC50 [2]: 5.89
